From patent US9702824B2, “pH sensors” (PROMEGA CORPORATION, priority 2012, dated 2017)

Columns and labels:
U2OS cells = experiment: Toxicity, CELLTITER-GLO Luminescent Cell Viability Assay (Example 3); type: cell-based; details: 0 nM to 20 uM, 24 hour
Procedure: The toxicity of dyes PBI-4479 and PBI-4453 was tested in U2OS cells. The cells were plated at 20,000 cells/well in McCoy's 5A media+10% FBS into wells of a 96-well plate. The compounds were then serially diluted 2-fold in McCoy's 5A+10% FBS to a 10× working solution. 10 ul of the working solution was added to the cells to a final concentration of 0 nM to 20 uM. The treated cells were then incubated overnight at 37° C., 5% CO2. Toxicity was tested using Promega's CELLTITER-GLO Luminescent Cell Viability Assay according to the manufacturer's protocol. No toxicity was seen across varying concentrations of the compounds over the 24 hour period (SEE FIG. 9).

[1] = Fluorescence intensity loss and recovery when titrated with base and acid; type: physicochemical; details: titrated from pH 4 to approximately 8 with NaOH and back to approximately 4 with HCl
Procedure: This example was performed to determine if fluorescence intensity of a pH sensor of the present invention, PBI-4479, which is mostly fluorescent at pH 4, could be recovered when titrated to basic pH, then back to acidic pH. In order to limit disruption of the concentration of the sensor, the experiment was run in a large volume, and the pH was adjusted dropwise with a concentrated base, then with an acid. The product was first dissolved in DMSO to create a concentrated stock, and then a small amount was diluted into 100 mL 10 mM sodium phosphate buffer pH 4.0. Fluorescence was recorded on a HoribaJobinYvon Fluorolog throughout the experiment using an excitation of 528 nm, and emission at 557 nm maintaining a slit width of 2 nm. Excitation and emission maxima were also determined for each aliquot in the event the fluorescence properties of the molecule changed. pH was monitored using a calibrated pH probe (Denver Instruments Model 215 pH meter). 1 mL aliquots were removed when the solution increased to approximately one pH unit, and fluorescence was measured using the parameters stated above. The solution was first titrated dropwise with 2N sodium hydroxide while stirring, until a pH of approximately 8 was attained. The solution was then titrated down with 4N hydrochloric acid until a pH of approximately 4 was attained.

U2-OS HaloTag-EDG1 cells = biological target: T1, U2-OS HaloTag-EDG1 cells (Homo sapiens, UniProt P21453); experiment: Detection of internalization using an impermeable pH sensor (Example 13); type: cell-based; details: 500 nM sensor, with 1 uM S1P
T1 construct: host or cells: U2-OS HaloTag-EDG1 cells
Procedure: The next day, the media was replaced with McCoy's 5A+0.5% cFBS and incubated overnight at 37° C./5% CO2. […] 1 uM S1P (Sphingosine-1-Phosphate) or carrier (DMSO) was then added to the cells, and images were acquired sequentially on Olympus FV500 at 37° C./5% CO2.

[2] = Stability in DMSO by fluorescent emission intensity; type: physicochemical; details: for Emission intensity, Ave: average of days 0-110; for Emission intensity: shielded from light, 562 nm, pH 4.0
Procedure: PBI-4479 was dissolved to 2 mM in DMSO to approximately 2.33 mg/mL. Aliquots of 350 uL from the 2 mM solution were stored shielded from light at −20° C., 4° C. and room temperature. Stability was established by measuring fluorescent emission intensity and by testing HPLC purity at time 0, 1 day, 1 week, 1 month, 4 months, and 6 months from when the solutions were prepared and stored. For the fluorescence measurements, each aliquot was diluted (1 uL) into 4 mL of 0.1M sodium phosphate pH 4.0 directly into a 4.5 mL plastic cuvette and mixed by inversion of the vial. The maximum emission peak at 562 nm was acquired using a HoribaJobinYvon fluorometer using an excitation of 532 nm with 1.5 nm slit width. For HPLC measurements, each aliquot was diluted to 1 mM in 0.1M sodium phosphate pH 4.0, and 2 uL tested. The purity of each aliquot was tested using an Agilent 1100 liquid chromatography system equipped with a quaternary pump and a diode-array detector. The diode-array detector was set at 254 nm and 532 nm. The elution was performed using a mobile phase (A) containing 0.1% TFA in water, and a mobile phase (B) containing HPLC grade acetonitrile. A Phenomenex Synergi MAX-RP column (50×4.6 mm; 2.6 μm) was used to perform the chromatography. The HPLC was performed as follows: a gradient ran 3% to 60% mobile phase (B) to 3.60 minutes, a hold at 60% mobile phase (B) for 1 minute, a ramp up to 100% mobile phase (B) to 6 minutes, another hold at 100% mobile phase (B) for 2 minutes, and then back to 3% mobile phase (B) for 1.5 minutes. The column was given 2.5 minutes to re-equilibrate back to the starting conditions. In these conditions, the product elutes at approximately 3.7 minutes. Purity (as area percent) of the product was reported at 254 nm and 532 nm.

[3] = Fluorescence excitation and emission spectra of pH sensor agents; type: physicochemical
Procedure: Experiments were conducted during development of embodiments of the present invention to determine the fluorescence characteristics of exemplary pH sensor agents PBI-4453 and PBI-4479 (SEE FIG. 1). Fluorescence excitation and emission intensities were measured at a range of wavelengths (SEE FIG. 2). […] Fluorescence detection was performed at a range of pH values (SEE FIG. 3).

[4] = system: U2-OS NLS cells (U2-OS cells stably expressing a HaloTag protein with a nuclear localization sequence); experiment: Permeability, pulse with sensor and chase with Oregon Green (Example 4); type: cell-based; details: 0-20 uM pulse for 1 hour
Procedure: Experiments were conducted during development of embodiments of the present invention to determine the permeability and specificity of the pH sensor. U2-OS cells (for specificity) and U2-OS NLS cells (U2-OS cells stably expressing a HaloTag protein with a nuclear localization sequence (NLS); for permeability) were treated with the PBI-4479 sensor. Cells were plated at 40,000 cells/well in 200 ul McCoy's 5A media+10% FBS (“complete media”) onto LTII chamber slides. The cells were then incubated overnight at 37° C., 5% CO2. The cells were then pulsed with PBI-4479 from 0-20 uM for 1 hour. […] Cells were then imaged on an Olympus FV500.

T1 sequence (P21453 with tags, fused parts or gaps): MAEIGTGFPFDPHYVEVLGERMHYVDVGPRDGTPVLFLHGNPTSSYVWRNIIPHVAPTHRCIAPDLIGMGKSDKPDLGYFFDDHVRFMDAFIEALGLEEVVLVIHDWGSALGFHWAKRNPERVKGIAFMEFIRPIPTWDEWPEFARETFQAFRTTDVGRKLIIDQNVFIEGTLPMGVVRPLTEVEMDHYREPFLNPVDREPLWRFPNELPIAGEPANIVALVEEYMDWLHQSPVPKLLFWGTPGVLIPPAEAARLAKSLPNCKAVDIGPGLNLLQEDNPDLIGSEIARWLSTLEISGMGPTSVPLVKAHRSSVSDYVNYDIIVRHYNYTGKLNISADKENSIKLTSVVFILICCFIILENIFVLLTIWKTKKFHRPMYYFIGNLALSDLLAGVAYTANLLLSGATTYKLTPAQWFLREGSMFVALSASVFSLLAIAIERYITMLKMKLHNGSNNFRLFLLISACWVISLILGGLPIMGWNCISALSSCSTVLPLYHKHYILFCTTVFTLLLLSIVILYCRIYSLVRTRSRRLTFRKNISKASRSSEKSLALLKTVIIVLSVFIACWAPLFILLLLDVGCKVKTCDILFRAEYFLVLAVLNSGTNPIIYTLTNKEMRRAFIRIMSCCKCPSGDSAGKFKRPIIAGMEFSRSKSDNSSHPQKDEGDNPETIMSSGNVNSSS

O=C(NCCOCCOCCOCCOCCOCCOCCCCCCCl)c1ccc(C(=O)[O-])c(-c2c3ccc(=[N+]4CCN(CCCCS(=O)(=O)O)CC4)cc-3oc3cc(N4CCN(CCCCS(=O)(=O)O)CC4)ccc23)c1 [PBI-4479]
toxicity (cell viability) (U2OS cells): No toxicity
reversibility of fluorescence intensity [1]: fluorescent intensity loss and recovery
detection of HaloTag-EDG1 internalization (U2-OS HaloTag-EDG1 cells): ability to detect internalization of HaloTag-EDG1
degradation by fluorescence intensity ([2]; 2 mM DMSO solution stored at room temperature): slight degradation
Emission intensity, Ave ([2]; 2 mM in DMSO, 4° C.): 2096856.0
Emission intensity, Ave ([2]; 2 mM in DMSO, RT): 2193684.0
Emission intensity ([2]; 2 mM in DMSO, 4° C., 0 days): 2109020
Emission intensity ([2]; 2 mM in DMSO, 4° C., 1 day): 2203160
Emission intensity ([2]; 2 mM in DMSO, 4° C., 7 days): 2055280
Emission intensity ([2]; 2 mM in DMSO, 4° C., 30 days): 2076310
Emission intensity ([2]; 2 mM in DMSO, 4° C., 110 days): 2040510
Emission intensity ([2]; 2 mM in DMSO, RT, 0 days): 2109020
Emission intensity ([2]; 2 mM in DMSO, RT, 1 day): 2641010
Emission intensity ([2]; 2 mM in DMSO, RT, 7 days): 2092940
Emission intensity ([2]; 2 mM in DMSO, RT, 30 days): 2158320
Emission intensity ([2]; 2 mM in DMSO, RT, 110 days): 1967130
Emission intensity ([2]; 2 mM in DMSO, −20° C., 0 days): 2109020
Emission intensity ([2]; 2 mM in DMSO, −20° C., 1 day): 2336260
Emission intensity ([2]; 2 mM in DMSO, −20° C., 7 days): 2006990
Emission intensity ([2]; 2 mM in DMSO, −20° C., 30 days): 2191770
Emission intensity ([2]; 2 mM in DMSO, −20° C., 110 days): 1926570
time stable ([2]; 2 mM in DMSO, stored below room temperature, by emission intensity and HPLC purity): at least 180 days
Emission intensity, Ave ([2]; 2 mM in DMSO, −20° C.): 2114122.0
emission maximum [3]: 562 nm
excitation maximum [3]: 534 nm
cell permeability (labeling of HaloTag-NLS) [4]: impermeable
